Laboratory results from patent US20240225915A1, “COMPOSITIONS FOR FIGHTING MALODORS” (SYMRISE AG, priority 2021, published 2024).

Test: Evaluation of malodor neutralization: sniffer box evaluation by 12 expert panelists
Details: arithmetic mean of panelist ratings; line scale from no odor (0) to strongest imaginable (10), moderate (5) = unperfumed malodor reference; 1 g water added to each sample
Experimental: The object of the following experiments has been the evaluation of performance against feminine hygiene malodor out of sniffer boxes. For this purpose 12 expert panelists evaluated the samples from sniffer boxes. The malodor was placed on different cotton balls and put into an aroma-tight air bag with a volume of […] together with the raw materials placed in a petri dish. Perfume- and malodor intensities were evaluated on a continuous line scale with ten labels ranging from “no odor” (0) to “strongest imaginable” (10) odor with “moderate” (5) being the unperfumed malodor reference sample. Note that panelists only see the verbal anchors not the numbers (0-10) while rating. Results are arithmetic means of the individual panelist's ratings. Subsequently, the data obtained from the olfactory tests were evaluated statistically by a Friedmann-Test for overall difference between the samples followed by a pairwise comparison to identify significant differences among individual samples.

SMILES | Malodor (malodor intensity)
CC1CCC(C(C)C)C(OC(=O)C(C)O)C1 (stereo not drawn) [C3, menthyl lactate] | 4.3
CC1CCC(C(C)C)C2(C1)OCC(CO)O2 (stereo not drawn) [C4, menthone glycerin acetal] | 4.4
CC(=O)OC1CC(C)CCC1C(C)C (stereo not drawn) [c2, menthyl acetate] | 4.4
